Results as given in ChEMBL document CHEMBL3351697, “Recent advances in the structural library of functionalized quinazoline and quinazolinone scaffolds: synthetic approaches and multifarious applications” (Eur J Med Chem, 2014).
≈ marks a conversion by molar mass, not a printed value.

Experiments:
MCF7 [1] = test: Antiproliferative activity against human MCF7 cells
HepG2 = test: Cytotoxicity against human HepG2 cells assessed as cell viability after 24 hrs by MTT assay; format: functional, cell-based; settings: HepG2, 24 h
[2] = Cytotoxicity against human HCT116 cells assessed as cell viability after 24 hrs by MTT assay; format: functional, cell-based; settings: HCT-116, 24 h
[3] = Inhibition of Mycobacterium tuberculosis GlmU
[4] = Antiproliferative activity against human PC3 cells by MTT assay; format: functional, cell-based; settings: PC-3
MCF7 [5] = test: Antiproliferative activity against human MCF7 cells after 48 hrs by SRB assay; format: functional, cell-based
[6] = Antiproliferative activity against human CH27 cells; format: functional, cell-based
[7] = Antiproliferative activity against human HSC3 cells; format: functional, cell-based; settings: HSC-3
M21 = test: Antiproliferative activity against human M21 cells; format: functional, cell-based
[8] = Antiproliferative activity against human Hep3B cells; format: functional, cell-based, Hep 3B2
[9] = Antiproliferative activity against human H460 cells; format: functional, cell-based; settings: NCI-H460
RAW264.7 = test: Antiinflammatory activity in mouse RAW264.7 cells assessed as inhibition of LPS-induced nitric oxide production at 20 ug/ml after 24 hrs by Griess method; format: functional; settings: RAW264.7, 24 h
[10] = Antiproliferative activity against human NCI60 cells; format: functional
MCF7 [11] = test: Potency index, ratio of cisplatin IC50 to compound IC50 for human MCF7 cells; format: functional
Bcap37 [12] = test: Antiproliferative activity against human Bcap37 cells at 10 uM by MTT assay; format: functional
[13] = Antiproliferative activity against human BGC823 cells by MTT assay; format: functional, cell-based; settings: BGC-823
[14] = Antiproliferative activity against human PC3 cells at 10 uM by MTT assay; format: functional; settings: PC-3
PC-3 [15] = test: Induction of apoptosis in human PC3 cells at 10 uM after 72 hrs by Hoechst 33258 staining; format: functional
Bcap37 [16] = test: Antiproliferative activity against human Bcap37 cells by MTT assay; format: functional, cell-based
PC-3 [17] = test: Induction of apoptosis in human PC3 cells at 1 uM after 72 hrs by Hoechst 33258 staining; format: functional
[18] = Antiproliferative activity against human BGC823 cells at 10 uM by MTT assay; format: functional; settings: BGC-823
[19] = test system: Mycobacterium tuberculosis; test: Antitubercular activity against Mycobacterium tuberculosis H37Rv assessed as growth inhibition; format: functional
Rattus norvegicus = test: Antiinflammatory activity in rat assessed as inhibition of carrageenan-induced paw edema at 25 to 200 mg/kg, po administered 1 hr before carrageenan challenge measured at 6 hrs; format: functional; set-up: scale not given: the % may be the effect or the level left; settings: dose mg/kg 25-200
[20] = Inhibition of alpha-glucosidase (unknown origin); set-up: species or system Homo sapiens
Pseudomonas aeruginosa = test: Antibacterial activity against Pseudomonas aeruginosa MTCC 741 assessed as growth inhibition at 100 ug/ml by agar well diffusion method; format: functional; settings: read-out: GI
Staphylococcus aureus = test: Antibacterial activity against Staphylococcus aureus MTCC 96 assessed as growth inhibition at 100 ug/ml by agar well diffusion method; format: functional; settings: read-out: GI
[21] = test system: Staphylococcus epidermidis; test: Antibacterial activity against Staphylococcus epidermidis MTCC 435 assessed as growth inhibition at 100 ug/ml by agar well diffusion method; format: functional; settings: read-out: GI
Escherichia coli = test: Antibacterial activity against Escherichia coli MTCC 443 assessed as growth inhibition at 100 ug/ml by agar well diffusion method; format: functional; settings: read-out: GI
[22] = Protective index, ratio of neurotoxicity in mouse by rotarod test to ED50 for inhibition of maximal electroshock-induced seizures in mouse; format: toxicity, organism-based; settings: in vivo, read-out: PI
SNB-75 = test: Growth inhibition of human SNB75 cells after 48 hrs by SRB assay; format: functional; settings: SNB-75, 48 h
[23] = biological target: Vascular endothelial growth factor receptor 2 (Homo sapiens, UniProt P35968); test: Inhibition of VEGFR2 (unknown origin)
A549 = test: Antiproliferative activity against human A549 cells; format: functional, cell-based
[24] = biological target: Proto-oncogene tyrosine-protein kinase Src (Homo sapiens, UniProt P12931); test: Inhibition of c-Src (unknown origin)
Proto-oncogene tyrosine-protein kinase Src, sequence (P12931 2-536 limits assumed): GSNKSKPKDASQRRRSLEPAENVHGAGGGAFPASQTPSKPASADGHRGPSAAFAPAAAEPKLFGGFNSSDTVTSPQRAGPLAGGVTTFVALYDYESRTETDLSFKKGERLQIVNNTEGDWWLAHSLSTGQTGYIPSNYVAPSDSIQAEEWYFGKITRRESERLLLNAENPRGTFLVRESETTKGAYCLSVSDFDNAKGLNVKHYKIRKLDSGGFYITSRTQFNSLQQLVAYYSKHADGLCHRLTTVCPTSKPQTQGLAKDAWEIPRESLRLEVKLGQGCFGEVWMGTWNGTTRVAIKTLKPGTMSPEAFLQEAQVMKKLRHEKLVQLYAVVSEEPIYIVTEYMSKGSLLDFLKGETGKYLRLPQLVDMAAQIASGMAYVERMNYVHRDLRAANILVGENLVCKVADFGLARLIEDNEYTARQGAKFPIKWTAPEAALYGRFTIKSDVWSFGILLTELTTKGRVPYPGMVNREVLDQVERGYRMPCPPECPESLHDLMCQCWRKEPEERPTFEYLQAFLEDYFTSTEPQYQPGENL

Vascular endothelial growth factor receptor 2, sequence (P35968 whole entry): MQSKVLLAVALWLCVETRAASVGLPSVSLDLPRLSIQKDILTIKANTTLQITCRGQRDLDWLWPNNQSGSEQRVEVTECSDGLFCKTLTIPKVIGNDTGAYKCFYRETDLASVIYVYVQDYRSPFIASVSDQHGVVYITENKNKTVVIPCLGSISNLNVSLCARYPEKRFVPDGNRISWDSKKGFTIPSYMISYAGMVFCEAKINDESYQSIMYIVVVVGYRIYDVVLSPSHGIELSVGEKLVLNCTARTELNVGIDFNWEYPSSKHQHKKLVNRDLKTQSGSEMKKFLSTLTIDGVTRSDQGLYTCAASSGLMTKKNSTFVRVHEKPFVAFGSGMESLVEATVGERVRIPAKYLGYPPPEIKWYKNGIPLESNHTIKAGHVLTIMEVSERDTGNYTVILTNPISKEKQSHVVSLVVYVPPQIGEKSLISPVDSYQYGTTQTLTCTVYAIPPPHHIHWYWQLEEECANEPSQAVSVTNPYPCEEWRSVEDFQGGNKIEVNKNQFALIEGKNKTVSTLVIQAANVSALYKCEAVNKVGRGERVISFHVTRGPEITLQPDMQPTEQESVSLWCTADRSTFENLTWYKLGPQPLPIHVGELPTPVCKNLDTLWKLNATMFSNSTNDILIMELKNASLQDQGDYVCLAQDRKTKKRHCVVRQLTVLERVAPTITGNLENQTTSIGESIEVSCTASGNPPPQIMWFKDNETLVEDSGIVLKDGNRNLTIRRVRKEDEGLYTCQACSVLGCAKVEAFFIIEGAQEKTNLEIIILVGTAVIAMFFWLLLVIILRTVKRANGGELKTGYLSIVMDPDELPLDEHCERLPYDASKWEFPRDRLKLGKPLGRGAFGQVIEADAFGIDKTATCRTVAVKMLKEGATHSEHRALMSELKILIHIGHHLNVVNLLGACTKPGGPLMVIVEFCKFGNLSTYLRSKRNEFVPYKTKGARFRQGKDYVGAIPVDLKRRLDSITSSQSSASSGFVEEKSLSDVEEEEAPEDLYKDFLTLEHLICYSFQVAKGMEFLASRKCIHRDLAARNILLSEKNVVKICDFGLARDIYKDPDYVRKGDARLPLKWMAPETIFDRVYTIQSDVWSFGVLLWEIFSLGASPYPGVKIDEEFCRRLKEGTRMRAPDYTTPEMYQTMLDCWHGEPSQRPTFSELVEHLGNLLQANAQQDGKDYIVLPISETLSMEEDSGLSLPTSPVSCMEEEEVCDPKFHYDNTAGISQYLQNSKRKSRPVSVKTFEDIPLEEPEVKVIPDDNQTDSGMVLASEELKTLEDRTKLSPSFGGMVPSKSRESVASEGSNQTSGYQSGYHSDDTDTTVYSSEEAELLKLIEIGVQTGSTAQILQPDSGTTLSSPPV

## O=c1c2cc(Br)cc(Br)c2nc(-c2ccccc2)n1-c1ccc(C2=NN(c3ccccc3)C(Cc3ccccc3)C2)cc1 (centres undefined)
MCF7 [1]
  IC50: 1.7 µg/mL

## CSc1nc2n(n1)c1ccccc1c1nnc(-c3ccncc3)n12
HepG2
  IC50: 9.34 µg/mL (≈ 28 µM)
[2]
  IC50: 11.5 µg/mL (≈ 34.5 µM)

## COc1cc2ncnc(Nc3ccc(NC(=O)c4cccc(O)c4)cc3)c2cc1OC
[3]
  IC50: 74000 nM

## COc1cc2ncnc(Nc3cccc(Br)c3)c2cc1OC
[4]
  IC50: 8300 nM

## COc1cccc2c1C(=O)c1c(O)c3c(c(O)c1C2=O)C[C@@](O)(C(=O)CO)C[C@@H]3O[C@H]1C[C@H](N)[C@H](O)[C@H](C)O1 [DOXORUBICIN]
MCF7 [5]
  IC50: 5490 nM

## COc1ccc2nc(-c3ccc4ccccc4c3)[nH]c(=O)c2c1
[6]
  IC50: 90 nM
[7]
  IC50: 150 nM
M21
  IC50: 90 nM
[8]
  IC50: 1940 nM
[9]
  IC50: 70 nM

## CCn1c(=O)c2ccccc2n2nc(SC)nc12
RAW264.7
  inhibition at 20 µg/mL: 50%

## COc1cc2c(=O)n(-c3ccccc3)c(=O)[nH]c2cc1NC(=O)NCCc1ccccc1Cl
[10]
  GI50: 794 nM

## CSc1nc2nc(Cl)c3ccccc3n2n1
RAW264.7
  inhibition at 20 µg/mL: 50%

## N#Cc1c(F)c(F)c2nc(-c3ccc(C(F)(F)F)cc3)nc(N)c2c1F
MCF7 [11]
  Ratio IC50: <=40

## O=C1CCC(=O)N1n1c(COc2ccccc2)nc2ccc(I)cc2c1=O
MCF7 [5]
  IC50: 5490 nM

## O=c1[nH]c(-c2ccc3ccccc3c2)nc2ccc(N3CCCC3)cc12
[6]
  IC50: 50 nM
[7]
  IC50: 40 nM
M21
  IC50: 30 nM
[8]
  IC50: 1350 nM
[9]
  IC50: 80 nM

## COc1cc2ncnc(NCCc3ccccc3F)c2c(OC)c1OC
Bcap37 [12]
  inhibition at 10 µM: 90.4%
[13]
  IC50: 3200 nM
[14]
  inhibition at 10 µM: 90.6%
PC-3 [15]
  Activity: 31.8%
Bcap37 [16]
  IC50: 3100 nM
PC-3 [17]
  Activity: 11.6%
[4]
  IC50: 6200 nM
[18]
  inhibition at 10 µM: 88.2%

## CO[C@H]1/C=C/O[C@@]2(C)Oc3c(C)c(O)c4c(O)c(c(/C=N/N5CCN(C)CC5)c(O)c4c3C2=O)NC(=O)/C(C)=C\C=C\[C@H](C)[C@H](O)[C@@H](C)[C@@H](O)[C@@H](C)[C@H](OC(C)=O)[C@@H]1C [RIFAMPIN]
[19]
  growth inhibition (GI): 99%

## NNC(=O)c1ccncc1 [ISONIAZID]
[19]
  growth inhibition (GI): 99%

## CC(=O)NS(=O)(=O)c1ccc(-n2c(C)nc3c(I)cc(I)cc3c2=O)cc1
Rattus norvegicus
  Activity: 74%

## COc1cc2c(=O)n(-c3ccccc3Cl)c(=O)[nH]c2cc1NC(=O)NCCc1ccccc1Cl
[10]
  GI50: 363 nM

## O=c1c2cc(-c3c(Cl)cccc3Cl)ccc2nc(C2CC2)n1Cc1cccnc1
[20]
  IC50: < 10000 nM

## Cc1nc2c(I)cc(I)cc2c(=O)n1-c1ccc(S(=O)(=O)Nc2ncccn2)cc1
Pseudomonas aeruginosa
  inhibition of growth at 100 µg/mL: 61.9%
Staphylococcus aureus
  inhibition of growth at 100 µg/mL: 61.9%
[21]
  inhibition of growth at 100 µg/mL: 61.9%
Escherichia coli
  inhibition of growth at 100 µg/mL: 61.9%

## Nc1nnc2c3ccccc3nc(-c3ccccc3Br)n12
[22]
  selectivity ratio: 5.8

## O=c1c2ccc(Cl)cc2nc(-c2ccccc2)n1/N=C/c1ccc(Cl)cc1
SNB-75
  GI50: 2570 nM
SNB-75; read-out: pLC50 (the source's name) (converted)
  CC50: 39800 nM
SNB-75; read-out: pTGI (converted)
  TGI: 7590 nM

## COc1cc2nccc(Oc3ccc(NC(=O)Nc4cc(C)on4)c(Cl)c3)c2cc1OC [TIVOZANIB]
MCF7 [1]
  IC50: 380 nM

## Cc1ncc([N+](=O)[O-])n1CCOc1ncnc2ccccc12
MCF7 [1]
  IC50: 350 nM
[23]
  IC50: 2.72 nM

## Cc1noc(NS(=O)(=O)c2ccc(-n3c(C)nc4c(I)cc(I)cc4c3=O)cc2)c1C
Pseudomonas aeruginosa
  inhibition of growth at 100 µg/mL: 61.9%
Staphylococcus aureus
  inhibition of growth at 100 µg/mL: 61.9%
[21]
  inhibition of growth at 100 µg/mL: 61.9%
Escherichia coli
  inhibition of growth at 100 µg/mL: 61.9%

## O=C(Nc1ccc(Nc2ccc([N+](=O)[O-])c3ncnc(O)c23)cc1)Nc1ccc(C(F)(F)F)cc1Cl
[23]
  IC50: 12 nM

## CCOc1nc2nc(SC)nn2c2ccccc12
HepG2
  IC50: 19.2 µg/mL (≈ 73.8 µM)
[2]
  IC50: 17.4 µg/mL (≈ 66.8 µM)

## O=C(Cc1cccc(Br)c1)Nc1ccc2ncnc(Nc3ccc(Br)cc3)c2c1
A549
  IC50: 3420 nM
[24]
  IC50: 27.3 nM
